Test system: Histiocytoma U937 cells
Assay: Spontaneous and maximum release of labeled compound, time-resolved fluorometric assay (Eu assay)
Assay type: cell-based
Settings: for maximum release (B) / spontaneous release (A): U937 cells labeled with 25 μM compound for 15 min; for maximum release (B): lysed with 0.125% digitonin in 19% DMSO, time-resolved fluorescence with europium solution; for spontaneous release (A): supernatant added to europium solution, time-resolved fluorescence, wells without digitonin; for spontaneous release (%) (C) (100 × A/B): U937 cells, 25 μM compound, ratio of spontaneous to maximum release
Protocol: Histiocytoma U937 cells were cultured in 30 mL of RPMI1640 medium under the conditions of 37° C., 5% CO2 overnight, the culture medium (30 mL) was placed in a 50 mL conical tube, and the cell number was counted. After centrifugation at 1700 rpm at 4° C. for 5 min, the supernatant was removed, and the cell pellets were resuspended in RPMI1640 medium at 1×10^6 cells/mL. To the cell suspension (1 mL) in a 15 mL conical tube was added 2.5 μL of a compound represented by the formula (I) or a salt thereof (10 mM stock solution) (final concentration: 25 μM), and the mixture was incubated under the conditions of 37° C., 5% CO2 for 15 min. The cells were washed 3 times with 5 mL of RPMI1640 medium, and resuspended in 5 mL of RPMI1640 medium. The cell suspension (2 mL) was placed in a 15 mL conical tube containing 6 mL of RPMI1640 medium to adjust the cell concentration to 5×10^3 cells/100 μL. The cell suspension (100 μL) was seeded in 6 wells of a 96 flat bottom plate. 100 μL of RPMI1640 medium was added to wells for determining the amount of spontaneous release, and 90 μL of RPMI1640 medium was added to wells for determining the amount of maximum release. The plates were centrifuged at 500 rpm, room temperature for 2 min and incubated under 37° C., 5% CO2 condition for 30 min. A newly-prepared 0.125% digitonin solution in 19% DMSO (mixed solution of 3 mg digitonin, 0.456 mL DMSO and 1.944 mL H2O) (10 μL) was added to the aforementioned wells for determining the amount of maximum release, mixed well and further incubated for 30 min. After incubation, the cell suspension was mixed well again, and centrifuged at 1700 rpm, room temperature for 2 min. After the centrifugation, the supernatant (25 μL) was carefully transferred into wells containing 250 μL of europium solution in a 96 flat bottom plate, and 200 μL of the solution thereof was placed in a 96-well flat bottom plate.
The plate was allowed to stand for 15 min, and the time-resolved fluorescence was measured by ARVO multiplate reader.

Row | SMILES | maximum release (B) | spontaneous release (A) | spontaneous release (%) (C) (100 × A/B)
1 | CC(=O)OCOC(=O)c1cccc(-c2cccc(-c3cccc(C(=O)OCOC(C)=O)n3)n2)n1 [BATDA, bis(acetoxymethyl) 2,2′:6′,2″-terpyridine-6,6″-dicarboxylate, reference compound] | 86785 | 14795 | 17%
2 | CCCC(=O)OCOC(=O)c1cccc(-c2cc(OCCO)cc(-c3cccc(C(=O)OCOC(=O)CCC)n3)n2)n1 [Example 1, bis(butyryloxymethyl) 4′-(2-hydroxyethoxy)-2,2′:6′,2″-terpyridine-6,6″-dicarboxylate] | 65576 | 6347 | 9.7%
3 | CCCNC(=O)COc1cc(-c2cccc(C(=O)OCOC(C)=O)n2)nc(-c2cccc(C(=O)OCOC(C)=O)n2)c1 [Example 2, bis(acetoxymethyl) 4′-(2-oxo-2-(propylamino)ethoxy)-2,2′:6′,2″-terpyridine-6,6″-dicarboxylate] | 60521 | 7085 | 11.7%
4 | CC(=O)OCOC(=O)c1cccc(-c2cc(OCCO)cc(-c3cccc(C(=O)OCOC(C)=O)n3)n2)n1 [Example 3, bis(acetoxymethyl) 4′-(2-hydroxyethoxy)-2,2′:6′,2″-terpyridine-6,6″-dicarboxylate] | 69372 | 4890 | 7%
5 | CCCC(=O)OCOC(=O)c1cccc(-c2cc(OCC=O)cc(-c3cccc(C(=O)OCOC(=O)CCC)n3)n2)n1 [Example 4, bis(butyryloxymethyl) 4′-(2-oxyethoxy)-2,2′:6′,2″-terpyridine-6,6″-dicarboxylate] | 43224 | 3590 | 8.3%
6 | CCC(=O)OCOC(=O)c1cccc(-c2cc(OCCO)cc(-c3cccc(C(=O)OCOC(=O)CC)n3)n2)n1 [Example 5, bis(propionyloxymethyl) 4′-(2-hydroxyethoxy)-2,2′:6′,2″-terpyridine-6,6″-dicarboxylate] | 78831 | 6991 | 8.9%
7 | CCCC(=O)OCOC(=O)c1cccc(-c2cc(OCCCO)cc(-c3cccc(C(=O)OCOC(=O)CCC)n3)n2)n1 [Example 6, bis(butyryloxymethyl) 4′-(3-hydroxypropoxy)-2,2′:6′,2″-terpyridine-6,6″-dicarboxylate] | 103235 | 9538 | 9.2%
8 | CCCC(=O)OCOC(=O)c1cccc(-c2cc(OCCOCCO)cc(-c3cccc(C(=O)OCOC(=O)CCC)n3)n2)n1 [Example 7, bis(butyryloxymethyl) 4′-(2-(2-hydroxyethoxy)ethoxy)-2,2′:6′,2″-terpyridine-6,6″-dicarboxylate] | 63594 | 6133 | 9.6%
9 | CC(=O)OCOC(=O)c1cccc(-c2cc(CO)cc(-c3cccc(C(=O)OCOC(C)=O)n3)n2)n1 [Example 9, bis(acetoxymethyl) 4′-(hydroxymethyl)-2,2′:6′,2″-terpyridine-6,6″-dicarboxylate] | 127955 | 21343 | 16.7%
